According to patent US7781580B2, “Stilbene derivatives as new cancer therapeutic agents” (Virginia Commonwealth University, priority 2007, dated 2010):
Where two headings read alike, the source gives them in different places.

Tests used:
[1] = tested on: UCI101 ovarian cancer cells; assay: Alamar Blue cell growth inhibition, UCI101; type: cell-based; conditions: UCI101, 48 hours
Experimental: Cell growth was measured by AlamarBlue™ staining and the percentage of cell growth inhibition was calculated and compared with the control cells that were treated with 0.1% DMSO, the vehicles for the stilbene compounds.
Cells were treated with the tested drug for 2 days before analysis of cell growth by Alamar Blue™ staining. Cells treated with 0.1% DMSO were used as control and set as 100%.
(a) In vitro sensitivity of UCI101 cells toward three potential stilbene prodrugs, 5a-c, was tested in 96-well plates using Alamar Blue™ assays to determine cell growth inhibition. […] (b) 5b induces cell cycle change and apoptosis in UCI101 cells. Cells were incubated with 5b at 1, 3, 10 μM for 16 hours followed by PI staining and flow cytometry analysis. A subG0/1 population, representing apoptotic cells, appeared along with a decrease of the G1/G2 ratio after cells were treated with 3 μM 5b. Higher concentration (10 μM) of 5b completely killed cells, as was the case with stilbene 4a at […]. (c) Cells treated with stilbene 4a and 5b were stained with phospho-histone 3B, a mitotic marker. The positive signals of phospho-histone 3B were shown in green and nuclei were stained with DAPI in blue. […] (d) In vivo efficacy of 5b compared with stilbene 4a. Nude mice were injected with UCI101 ovarian cancer cells and treated with 7 doses of 5b,c or stilbene 4a every 2-3 days. Tumor volume was calculated and plotted against days.
(§1) Various cancer cell lines were grown in 96-well plates for drug sensitivity assays. Once cells achieved 50% confluence, the incubation media was changed to the same cell growth media with different concentrations of the tested compounds or vehicle alone. Cells were then incubated for 48 hours before the cell growth inhibition study. To determine the degree of cell growth inhibition, 1/10 volume of Alamar Blue™ solution was added to each well and optical density (OD) at 570 and 600 nm was determined. The percentage of growth inhibition was calculated according to the manufacturer's formula as follows: The percentage of growth is [(117216×A570)−(80586×A600)]/[(117216×A^o570)−(80586×A^o600)]×100. In this formula, A570 is the absorbance of the treated samples at 570 nm; A600 is the absorbance of the treated samples at 600 nm; A^o570 is the absorbance of the […] samples at 570 nm; and A^o600 is the absorbance of the untreated samples at 600 nm. The two constants, 117216 and 80586, are the extinction coefficients of Alamar Blue™ at 570 and 600 nm respectively. Each concentration was repeated in triplicate to minimize the error.
(§2) We first tested the cytotoxic effect of various stilbene derivatives for their in vitro efficacy of suppressing tumor cell proliferation. Cells were first plated in 96-well plates at 50% confluence and treated with 0, 0.01, 0.03, 0.1, 0.3, 1.0, 3.0, 10 μM concentrations of stilbene derivatives for 48 hours in triplicate. Alamar Blue™ reagent was added into each well at 1/10 volume and incubated for 2 hours before quantification of the absorbance at 570 and 600 nm.

tumor cell proliferation = assay: suppression of tumor cell proliferation, cell line not stated; type: cell-based; conditions: read-out: IC50, suppressing tumor cell proliferation
Experimental: as §1

[2] = water solubility of stilbene and carbamate prodrug (salts and free base); type: physicochemical
Experimental: Stilbene prodrugs may be made by attaching to a stilbene derivative of interest (e.g. a stilbene derivative with anti-tumor activity), chemical groups (or moieties) that render the stilbene derivative more water soluble than before such a modification is carried out. By “water soluble” we mean that more than 20 mg compound can be fully dissolved in 1 mL of water. Further, the chemical groups that are attached to the stilbene derivative to make the derivative water soluble are labile (i.e. removable) in that, upon exposure to in vitro or in vivo hydrolyzing conditions, the chemical groups are removed or dissociated from the stilbene derivative by hydrolysis, releasing the active, anti-tumor form of the stilbene derivative. The chemical groups which are attached may themselves be biologically active, and are, at least, not biologically injurious to cells or mammals. […] As illustrated, morfolinoethyl-urea, morfolinoethyl-carbamate and triethylene glycol (TEG) groups (5a, 5b, 5c, respectively) may be used for this purpose.

[3] = tested on: MDA-MB231 breast cancer cells; assay: cell cycle analysis, MDA-MB231; type: cell-based; conditions: 16 hours
Experimental: (§3) Cells were treated with various concentrations of stilbene 4a or CA4 for 16 hours followed by PI staining and FACscan analysis. […] A unique feature of stilbene 4a was noted when cells were treated with 30 nM.
(§4) Due to the structural similarity between stilbene 4a and CA4, we investigated the difference in the biological activity of these two compounds in MDA-MB231 breast cancer cells and their Chk2−/− derivatives. […] MDA-MB231 cells were treated with 10 nM stilbene 4a or 1 nM CA4. […] However, a difference in cell cycle change was observed following treatment with 30 nM of stilbene 4a versus 3 nM of CA4. […] This was also the case for cells treated with 100 nM stilbene 4a. A significant subG1/0 population was also noted. […] One possible effect could be a DNA damage response, which is a common mechanism of multiple chemotherapeutic agents but not one of pure microtubule-interfering agents such a paclitaxel or vincristine. […] We then obtained conditional Chk1−/− and Chk2−/− cells, which were derived from the same MDA-MB231 cells for the same flow cytometry analysis. […] In contrast, Chk2−/− cells were more sensitive to stilbene 4a. […] This mechanism is not obvious in higher drug concentrations at which the G2 arrest from microtubule interference is dominant. Therefore, in addition to their microtubule interfering effect, stilbenes have another mechanism to induce cell death. Thus, the use of a Chk2 inhibitor in combination with stilbenes may be a viable approach to enhancing the beneficial therapeutic effects of stilbenes.

[4] = tested on: SKOV3 ovarian cancer cells; assay: Alamar Blue cell growth inhibition, SKOV3; type: cell-based
Experimental: Cells were incubated with various concentrations of the compounds for 48 hours. Cell growth was measured by Alamar Blue™ staining and the percentage of cell growth inhibition was calculated and compared with the control cells that were treated with 0.1% DMSO, the vehicle for the stilbene compounds.
as §1

MDA-MB231 cells = assay: immunofluorescent staining of tubulin, MDA-MB231; type: cell-based; conditions: CA4 10 nM, stilbene 4a 100 nM, vincristine 100 nM, 5b 3 μM; 16 hours
Excerpt: Nuclei were stained with 4′,6-diamidino-2-phenylindole (DAPI). Control cells show the reticular pattern of the microtubule network.

[5] = tested on: SNU423 hepatocellular carcinoma cells; assay: Alamar Blue cell growth inhibition, SNU423; type: cell-based
Summary of the method: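 Cells at 50% confluence were treated for 48 h in triplicate with 0-10 μM compound or 0.1% DMSO vehicle. Alamar Blue was added at 1/10 volume for 2 h, and absorbance at 570 and 600 nm gave % growth via the manufacturer's extinction-coefficient formula relative to vehicle controls.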

[6] = clinical studies; cited from earlier work
[7] = tested on: MDA-MB231 breast cancer cells; assay: Alamar Blue cell growth inhibition, MDA-MB231; type: cell-based
Experimental: Cell growth was measured by Alamar Blue™ staining and the percentage of cell growth inhibition was calculated and compared with control cells that were treated with 0.1% DMSO, the vehicles for the stilbene compounds.
as §1, §2

UCI101 cells = assay: immunofluorescent staining of tubulin, UCI101; type: cell-based; conditions: CA4 10 nM, stilbene 4a 100 nM, 5b 3 μM; 16 hours
Excerpt: Nuclei were stained with DAPI.

Chk2−/− cells = assay: cell cycle analysis, Chk2-/- MDA-MB231 derivative; type: cell-based; conditions: 16 hours
Experimental: as §3, §4

[8] = tested on: UCI101 ovarian cancer cells; assay: Western blot of signal transduction events, UCI101; type: cell-based; conditions: 36 hours
Experimental: All these agents are microtubule interfering agents but with different binding sites. Cells were harvested at 0, 4, 8, 16 and 36 hours after drug treatment for Western blot analysis. […] Phosphorylation of both Cdc25C and Cdc2 disappeared after 16 hours and slightly recovered at 36 hours. […] Akt phosphorylation decreased after 16 hours of treatment.
In order to understand the mechanism of resistance of stilbenes, various signal transduction pathways were investigated to examine how cells respond to stilbene treatment. UCI101 ovarian cancer cells were treated with stilbenes 4a, 4c or paclitaxel (Taxol) at 0.1 μM for 0, 4, 8, 16 and 36 hours. Cells were harvested for Western blotting. Changes in the kinases involved in cell cycle progression from G2-M transition were first determined in Cdc2, Cdc25c, and mitotic spindle check point regulator BubR1. […] 36 hours after treatment, rephosphorylation of Cdc2 was observed. […] The higher molecular weight isomer of Cdc25c, the mitotic form, increased at 16 and 36 hours. […] A similar study was then performed with other microtubule interfering agents such as combretastatin A4, 13a and vincristine for comparison. A similar trend was observed among these three microtubule interfering agents (FIG. 18).

Chk1−/− cells = assay: cell cycle analysis, Chk1-/- MDA-MB231 derivative; type: cell-based
Experimental: as §4

[9] = tested on: MiaPaCa2 pancreatic cancer cells; assay: Alamar Blue cell growth inhibition, MiaPaCa2; type: cell-based
Experimental: as §1, §2

| SMILES | relative potency / activity [1] | IC50 (tumor cell proliferation) | water solubility (in words) [2] | cell cycle change at 10 nM stilbene 4a or 1 nM CA4 [3] | effective concentration ([4]; SKOV) | effective / active concentration ([4]; SKOV3, 48 hours) | microtubule pattern (MDA-MB231 cells) | relative potency ([5]; SNU423) | effective concentration, blocking cell proliferation ([5]; SNU423, 48 hours) | dose above which cardiac toxicity, neurotoxicity and tumor pain were observed [6] | relative potency ([7]; MDA-MB231) | microtubule pattern (UCI101 cells) | change of effective concentration versus MDA-MB231 (Chk2−/− cells) | phosphorylation of Chk1 [8] | sensitivity versus MDA-MB231 (Chk1−/− cells) | relative potency ([9]; MiaPaCa2) | IC50 ([5]; Homo sapiens, SNU-423, 48 h, read-out: IC50 (50% growth inhibition), SNU423, 48 hours) | IC50 (tumor cell proliferation; cell line not stated) | effective concentration ([7]; MDA-MB231, 48 hours) | effective concentration ([9]; MiaPaCa2, 48 hours) |
| --- | --- | --- | --- | --- | --- | --- | --- | --- | --- | --- | --- | --- | --- | --- | --- | --- | --- | --- | --- | --- |
| COc1cc(/C=C\c2ccc(OC)cc2N)cc(OC)c1.O=C(O)C(=O)O [4b, (Z)2-[2-(3,5-Dimethoxy-phenyl)-vinyl]-5-methoxy-phenylamine oxalate] | less active than stilbene 4a | 80 nM | enhanced by the formation of an oxalate salt |  |  |  |  |  |  |  |  |  |  |  |  |  |  |  |  |  |
| COc1ccc(/C=C\c2cc(OC)c(OC)c(OC)c2)cc1O [combretastatin A4, (Z)-2-Methoxy-5-[2-(3,4,5-trimethoxy-phenyl)-vinyl]-phenol, reference compound] | most active compound |  |  | No change was observed | 10 nM | 0.01 µM | did not completely disrupt microtubule formation | most potent compound | 0.003 µM | higher than 68 mg/m^2 | most effective | complete disruption of microtubules | decreased by three fold | do not cause more phosphorylation of Chk1 | more resistant | most effective |  |  |  |  |
| COc1cc(O)cc(/C=C\c2ccc(OC)c(N)c2)c1.Cl [10d, (Z)-3-[2-(3-Amino-4-methoxy-phenyl)-vinyl]-5-methoxy-phenol, hydrochloride] | less active than stilbene 4a |  |  |  |  |  |  |  |  |  |  |  |  |  |  |  | 300 to 1000 nM | 1000 nM | above 0.3 μM | above 0.3 μM |
